According to EPA's ToxRefDB 2:

Key:
rat [1] = settings: Multigenerational reproductive toxicity study, sprague dawley, Oral, Feed, dose end: 2 generation; for LEL / NEL: systemic / organ weight / liver / relative to body weight
rat [2] = settings: Subchronic oral toxicity in rodents, fischer, Feed, dose end: 13 week, group: systemic
dog [3] = settings: Chronic toxicity; beagle; Oral; Capsule; dose end: 52 week; group: systemic; systemic / hematology / mean corpuscular hemoglobin (mch) / mean corpuscular hemoglobin (mch) + systemic / hematology / mean corpuscular …
rabbit = settings: Prenatal developmental toxicity study; new zealand white; Oral; Gavage/Intubation; dose end: 19 GD; group: maternal; systemic / in life observation / body weight / body weight gain + systemic / in life observation / clinical signs / altered breathing rate…
rat [4] = settings: Combined chronic toxicity/carcinogenicity, fischer, Oral, Feed, dose end: 104 week, group: systemic
mouse = settings: Carcinogenicity, cd1, Oral, Feed, dose end: 80 week, group: systemic
dog [5] = settings: Subchronic oral toxicity in nonrodent, beagle, Capsule, dose end: 13 week, group: systemic
rat [6] = settings: Prenatal developmental toxicity study, sprague dawley, Oral, Gavage/Intubation, dose end: 15 GD
[7] = group: parental, systemic / in life observation / body weight / body weight gain + systemic / organ weight / liver / relative to body weight + systemic / …
[8] = systemic / clinical chemistry / cholesterol / cholesterol + systemic / hematology / hematocrit (hct) / hematocrit (hct) + systemic / …
[9] = systemic / hematology / hematocrit (hct) / hematocrit (hct)
[10] = systemic / clinical chemistry / protein / protein
[11] = systemic / clinical chemistry / glucose / glucose + systemic / clinical chemistry / alanine aminotransferase (alt/sgpt) / alanine …
[12] = group: developmental, developmental / developmental malformation / bone / full supernumerary
[13] = group: developmental, developmental / developmental malformation / bone / full supernumerary + developmental / developmental malformation / bone / incomplete …
[14] = group: maternal, systemic / organ weight / placenta / nos
[15] = group: maternal, systemic / organ weight / placenta / nos + systemic / in life observation / body weight / body weight + systemic / in life observation / …

Clc1ccc(C2(Cn3cncn3)CC(Br)CO2)c(Cl)c1 (centres undefined) [Bromuconazole]
LOAEL (rat [1]; group: offspring, systemic / in life observation / body weight / offspring (pup) weight gain): 141 mg/kg/day | NOAEL (rat [1]; group: offspring, systemic / in life observation / body weight / offspring (pup) weight gain + developmental / offspring survival late / viability index / …): 13.8 mg/kg/day | LEL (rat [1]; group: offspring): 1.6 mg/kg/day | NEL (rat [1]; group: offspring): < 1.6 mg/kg/day | LOAEL (rat [1]; [7]): 141 mg/kg/day | NOAEL (rat [1]; [7]): 13.8 mg/kg/day | LEL (rat [1]; group: parental): 1.3 mg/kg/day | NEL (rat [1]; group: parental): < 1.3 mg/kg/day | LOAEL (rat [2]; [8]): 68.1 mg/kg/day | NOAEL (rat [2]; [8]): 13.8 mg/kg/day | LEL (rat [2]; [9]): 2.72 mg/kg/day | NEL (rat [2]; [9]): < 2.72 mg/kg/day | LEL (dog [3]): 25 mg/kg/day | LOAEL (dog [3]): 25 mg/kg/day | NEL (dog [3]): 2.5 mg/kg/day | NOAEL (dog [3]): 2.5 mg/kg/day | LEL (rabbit): 50 mg/kg/day | LOAEL (rabbit): 50 mg/kg/day | NEL (rabbit): 12.5 mg/kg/day | NOAEL (rabbit): 12.5 mg/kg/day | LEL (rat [4]; [10]): 0.88 mg/kg/day | NEL (rat [4]; [10]): < 0.88 mg/kg/day | LOAEL (rat [4]; systemic / pathology microscopic / liver / vacuolization): 8.27 mg/kg/day | NOAEL (rat [4]; systemic / pathology microscopic / liver / vacuolization + systemic / in life observation / body weight / body weight + systemic / in life …): 1.09 mg/kg/day | LOAEL (mouse; systemic / in life observation / body weight / body weight gain): 113 mg/kg/day | NOAEL (mouse; systemic / in life observation / body weight / body weight gain + systemic / pathology microscopic / liver / adenoma + systemic / organ …): 10.8 mg/kg/day | NEL (mouse; systemic / organ weight / liver / absolute + systemic / organ weight / liver / relative to body weight + systemic / organ weight / adrenal …): 370 mg/kg/day | LOAEL (dog [5]; systemic / clinical chemistry / glucose / glucose): 25 mg/kg/day | NEL (dog [5]; [11]): 2.5 mg/kg/day | NOAEL (dog [5]; [11]): 2.5 mg/kg/day | LEL (dog [5]; systemic / clinical chemistry / glucose / glucose + systemic / organ weight / liver / relative to body weight): 25 mg/kg/day | LEL (rat [6]; [12]): 70 mg/kg/day | LOAEL (rat [6]; [12]): 70 mg/kg/day | NEL (rat [6]; [13]): 10 mg/kg/day | NOAEL (rat [6]; [13]): 10 mg/kg/day | LEL (rat [6]; [14]): 70 mg/kg/day | LOAEL (rat [6]; [14]): 70 mg/kg/day | NEL (rat [6]; [15]): 10 mg/kg/day | NOAEL (rat [6]; [15]): 10 mg/kg/day
